Measured values as given in ChEMBL document CHEMBL1201862, “PubChem BioAssay data set” (2004).
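How tested: cells in 96-well plates exposed to compound for 48 hours at five concentrations. GI50 is the concentration that inhibits growth by half.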 Activity calls are given as the source filed them. No stated cut-off is given here; in the data, active = GI50 up to about 1.1 µM and inactive = higher.

Experiments:
Assay in all cases: NCI anticancer screen, dose series, 48 h
HCT-116 = test system: HCT-116
SK-OV-3 = test system: SK-OV-3
OVCAR-8 = test system: OVCAR-8
NCI-H460 = test system: NCI-H460
TK-10 = test system: TK-10
HOP-92 = test system: HOP-92
A549 = test system: A549
UO-31 = test system: UO-31
HOP-62 = test system: HOP-62
HCC 2998 = test system: HCC 2998
UACC-257 = test system: UACC-257
M14 = test system: M14
MOLT-4 = test system: MOLT-4
RPMI-8226 = test system: RPMI-8226
786-0 = test system: 786-0
U-251 = test system: U-251
SK-MEL-28 = test system: SK-MEL-28
CCRF-CEM = test system: CCRF-CEM
SR = test system: SR

Measured: GI50

COc1ccc(OC)c(NCC#N)c1
inactive: HCT-116 > 100 µM | SK-OV-3 > 100 µM | OVCAR-8 > 100 µM | NCI-H460 > 100 µM | TK-10 > 100 µM | HOP-92 > 100 µM | A549 > 100 µM | UO-31 > 100 µM | HOP-62 > 100 µM | HCC 2998 > 100 µM | UACC-257 > 100 µM | M14 > 100 µM | MOLT-4 > 100 µM | RPMI-8226 > 100 µM | 786-0 > 100 µM | U-251 > 100 µM | SK-MEL-28 > 100 µM | CCRF-CEM > 100 µM

O=C1C(c2ccccc2)=[N+]([O-])c2cc([N+](=O)[O-])c(/C(Cl)=C/c3ccccc3)cc21
inactive: SK-OV-3 > 100 µM | OVCAR-8 16.1 µM | TK-10 33.7 µM | A549 40.1 µM | UO-31 41.8 µM | M14 16 µM | MOLT-4 13.9 µM | RPMI-8226 13.9 µM | 786-0 29.9 µM | U-251 18.6 µM | SK-MEL-28 27.4 µM | CCRF-CEM 10.5 µM | SR 17.9 µM

OCC1OC(c2nc(C3=NCCCN3)cs2)C(O)C1O (stereo not drawn)
inactive: HCT-116 > 100 µM | SK-OV-3 > 100 µM | OVCAR-8 > 100 µM | NCI-H460 > 100 µM | TK-10 > 100 µM | HOP-92 > 100 µM | A549 > 100 µM | UO-31 > 100 µM | HOP-62 > 100 µM | HCC 2998 > 100 µM | UACC-257 > 100 µM | M14 > 100 µM | MOLT-4 > 100 µM | RPMI-8226 > 100 µM | 786-0 > 100 µM | U-251 > 100 µM | SK-MEL-28 > 100 µM | CCRF-CEM > 100 µM

Cc1ccccc1NC(=O)CSc1nnc(-c2ccc(/N=C\c3ccc(Cl)cc3)cc2)o1
inactive: HCT-116 > 100 µM | SK-OV-3 > 100 µM | OVCAR-8 > 100 µM | NCI-H460 > 100 µM | TK-10 > 100 µM | A549 > 100 µM | UO-31 > 100 µM | HOP-62 > 100 µM | UACC-257 > 100 µM | M14 > 100 µM | MOLT-4 > 100 µM | RPMI-8226 > 100 µM | 786-0 > 100 µM | U-251 > 100 µM | SK-MEL-28 > 100 µM | CCRF-CEM > 100 µM | SR > 100 µM

C(=N\OCc1ccccc1)/c1ncccc1C1OCCO1
inactive: HCT-116 > 100 µM | SK-OV-3 > 100 µM | OVCAR-8 > 100 µM | NCI-H460 > 100 µM | TK-10 > 100 µM | HOP-92 > 100 µM | A549 > 100 µM | UO-31 > 100 µM | HOP-62 > 100 µM | UACC-257 > 100 µM | M14 > 100 µM | MOLT-4 > 100 µM | 786-0 > 100 µM | U-251 > 100 µM | SK-MEL-28 > 100 µM | CCRF-CEM > 100 µM | SR > 100 µM
